In patent US8557872B2, “Compounds, isomer thereof, or pharmaceutically acceptable salts thereof as vanilloid receptor antagonist; and pharmaceutical compositions containing the same” (Amorepacific Corporation, priority 2008, dated 2013):

target: T1, vanilloid receptor (Rattus norvegicus, UniProt O35433); test: 45Ca influx test (calcium uptake) in primary cultured DRG neurons, capsaicin 0.5 μM; format: cell-based; conditions: rat DRG neurons, capsaicin 0.5 μM, 45Ca; read-out: Antagonist Calcium Uptake Test (IC50)
T1 construct: DRG nerve cells from the primary culture of 2 days were equilibrated by washing 4 times; endogenous in cells; host or cells: primary culture of dorsal root ganglion neurons from neonatal SD rats
Experimental: 1) Separation of Spinal Dorsal Root Ganglia (DRG) in Newborn Rats and Primary Culture Thereof
Neonatal (2-3 day old or younger than 2-3 day old) SD rats were put in ice for 5 minutes to anesthetize and disinfected with 70% ethanol. […] The DRG were incubated sequentially at 37° C. for 30 mins in 200 U/ml collagenase and 2.5 mg/ml trypsin, separately. The ganglia were washed twice with DME/F12 medium supplemented with 10% horse serum, triturated through a fire-polished Pasteur pipette, filtered through Nitex 80 membrane to obtain single cell suspension and the suspension was washed once more. This was subjected to centrifugation, then resuspended in cell culture medium at certain level of cell density. As the cell culture medium, DME/F12 medium supplemented with 10% horse serum was diluted with identical medium conditioned by C6 glioma cells 2 days on a confluent monolayer (1:1), and NGF (Nerve Growth Factor) was added to adjust 200 ng/ml as final concentration. After the cells were grown 2 days in medium where cytosine arabinoside (Ara-C, 100 μM) was added to kill dividing nonneuronal cells, medium was changed to one without Ara-C. The resuspended cells were plated at a density of 1500-2000 neurons/well onto Terasaki plates previously coated with 10 μg/ml poly-D-ornithine.
2) ^45Ca Influx Experiments
DRG nerve cells from the primary culture of 2 days were equilibrated by washing 4 times with HEPES (10 mM, pH 7.4)-buffered Ca^2+, Mg^2+-free HBSS (H-HBSS). The solution in each well was removed from the individual well. Medium containing the test compound plus capsaicin (final concentration 0.5 μM) and ^45Ca (final concentration 10 μCi/ml) in H-HBSS was added to each well and incubated at room temperature for 10 mins. Terasaki plates were washed five times with H-HBSS and dried at room temperature. To each well, 0.3% SDS (10 μl) was added to elute ^45Ca. After the addition of scintillation cocktail of into each well, the amount of ^45Ca influx into neuron was measured by counting radioactivity.

T1 sequence (O35433 whole entry): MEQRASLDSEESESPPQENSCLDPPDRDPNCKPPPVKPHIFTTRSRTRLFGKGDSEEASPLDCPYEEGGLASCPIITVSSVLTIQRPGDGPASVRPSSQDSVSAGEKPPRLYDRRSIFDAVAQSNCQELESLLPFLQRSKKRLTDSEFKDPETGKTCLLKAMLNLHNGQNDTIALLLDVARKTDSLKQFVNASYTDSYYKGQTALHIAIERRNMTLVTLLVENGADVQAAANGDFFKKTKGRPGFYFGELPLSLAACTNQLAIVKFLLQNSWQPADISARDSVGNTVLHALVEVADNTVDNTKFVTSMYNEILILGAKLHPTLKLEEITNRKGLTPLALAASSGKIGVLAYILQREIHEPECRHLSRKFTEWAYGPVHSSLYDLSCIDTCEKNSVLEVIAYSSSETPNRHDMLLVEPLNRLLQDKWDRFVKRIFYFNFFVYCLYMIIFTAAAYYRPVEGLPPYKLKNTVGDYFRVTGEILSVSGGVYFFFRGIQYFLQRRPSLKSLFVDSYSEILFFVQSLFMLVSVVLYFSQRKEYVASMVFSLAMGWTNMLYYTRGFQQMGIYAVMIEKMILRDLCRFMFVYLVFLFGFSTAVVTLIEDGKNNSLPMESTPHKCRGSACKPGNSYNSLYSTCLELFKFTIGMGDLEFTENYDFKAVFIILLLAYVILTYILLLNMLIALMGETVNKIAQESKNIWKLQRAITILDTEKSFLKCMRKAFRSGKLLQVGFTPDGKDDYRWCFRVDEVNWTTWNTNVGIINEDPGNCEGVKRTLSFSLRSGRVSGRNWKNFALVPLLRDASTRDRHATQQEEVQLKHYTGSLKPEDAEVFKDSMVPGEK

SMILES | IC50
CCCCNc1cc(F)ccc1/C=C/C(=O)NCc1cc(F)c(NS(C)(=O)=O)c(F)c1 [Example 46, 3-(2-Butylamino-4-fluoro-phenyl)-N-(3,5-difluoro-4-methanesulfonylamino-benzyl)-acrylamide] | 0.18 µM
CCCNc1cc(C(F)(F)F)ccc1CCC(=O)NCc1cc(F)c(NS(C)(=O)=O)c(F)c1 [Example 56, N-(3,5-difluoro-4-methanesulfonylamino-benzyl)-3-(2-propylamino-4-trifluoromethyl-phenyl)-propionamide] | 0.35 µM
C#Cc1cc(CNC(=O)/C=C/c2ccc(C(F)(F)F)cc2OCCC)cc(F)c1NS(C)(=O)=O [Example 14, N-(3-Ethynyl-5-fluoro-4-methanesulfonylamino-benzyl)-3-(2-propoxy-4-trifluoromethyl-phenyl)-acrylamide] | 0.24 µM
CCC(C)Oc1cc(F)ccc1/C=C/C(=O)NCc1cc(F)c(NS(C)(=O)=O)c(F)c1 (stereo not shown) [Example 41, 3-(2-sec-Butoxy-4-fluoro-phenyl)-N-(3,5-difluoro-4-methanesulfonylamino-benzyl)-acrylamide] | 0.55 µM
CCCCOc1cc(C(F)(F)F)ccc1/C=C/C(=O)N[C@H](CC)c1cc(F)c(NS(C)(=O)=O)c(F)c1 (stereo in doubt) [Example 38, 3-(2-Butoxy-4-trifluoromethyl-phenyl)-N-[1-(3,5-difluoro-4-methanesulfonylamino-phenyl)-propyl]-acrylamide] | 1.1 µM
CC(C)Oc1cc(C(F)(F)F)ccc1/C=C/C(=O)N[C@H](C)c1cc(F)c(NS(C)(=O)=O)c(F)c1 [Example 26, (R)—N-[1-(3,5-Difluoro-4-methanesulfonylamino-phenyl)-ethyl]-3-(2-isopropoxy-4-trifluoromethyl-phenyl)-acrylamide] | 0.047 µM
CCCNc1cc(F)ccc1/C=C/C(=O)N[C@H](C)c1cc(F)c(NS(C)(=O)=O)c(F)c1 [Example 29, (R)—N-[1-(3,5-Difluoro-4-methanesulfonylamino-phenyl)ethyl]-3-(4-fluoro-2-propylaminophenyl)-acrylamide] | 0.16 µM
CCCc1cc(C(F)(F)F)cc(CCC)c1/C=C/C(=O)N[C@H](C)c1cc(F)c(NS(C)(=O)=O)c(F)c1 [Example 6, (R)—N-[1-(3,5-Difluoro-4-methanesulfonylamino-phenyl)-ethyl]-3-(2,6-dipropyl-4-trifluoromethyl-phenyl)-acrylamide] | 0.026 µM
CCOc1cc(C(F)(F)F)ccc1/C=C/C(=O)NCc1cc(F)c(NS(C)(=O)=O)c(F)c1 [Example 8, N-(3,5-Difluoro-4-methanesulfonylamino-benzyl)-3-(2-ethoxy-4-trifluoromethyl-phenyl)-acrylamide] | 0.85 µM
C[C@@H](NC(=O)/C=C/c1ccc(C(F)(F)F)cc1OCC1CCCCC1)c1cc(F)c(NS(C)(=O)=O)c(F)c1 [Example 50, (R)-3-(2-Cyclohexylmethoxy-4-trifluoromethyl-phenyl)-N-[1-(3,5-difluoro-4-methanesulfonylamino-phenyl)-ethyl]-acrylamide] | 0.21 µM
CCCCNc1cc(F)ccc1/C=C/C(=O)N[C@H](C)c1cc(F)c(NS(C)(=O)=O)c(F)c1 [Example 45, (R)-3-(2-Butylamino-4-fluoro-phenyl)-N-[1-(3,5-difluoro-4-methanesulfonylamino-phenyl)-ethyl]-acrylamide] | 0.065 µM
CCCCc1cc(C(F)(F)F)ccc1/C=C/C(=O)N[C@H](C)c1ccc(NS(C)(=O)=O)c(F)c1 [Example 36, (R)-3-(2-Butyl-4-trifluoromethyl-phenyl)-N-[1-(3-fluoro-4-methanesulfonylamino-phenyl)-ethyl]-acrylamide] | 0.046 µM
CCNc1cc(F)ccc1/C=C/C(=O)NCc1cc(F)c(NS(C)(=O)=O)c(F)c1 [Example 43, N-(3,5-Difluoro-4-methanesulfonylaminobenzyl)-3-(4-fluoro-2-ethylaminophenyl)acrylamide] | 0.32 µM
CCCCOc1cc(C(F)(F)F)ccc1/C=C/C(=O)NCc1cc(F)c(NS(C)(=O)=O)c(F)c1 [Example 32, 3-(2-Butoxy-4-trifluoromethyl-phenyl)-N-(3,5-difluoro-4-methanesulfonylamino-benzyl)-acrylamide] | 2.2 µM
CCC(C)Oc1cc(F)ccc1/C=C/C(=O)N[C@H](C)c1cc(F)c(NS(C)(=O)=O)c(F)c1 (stereo partly drawn) [Example 40, (R)-3-(2-sec-Butoxy-4-fluoro-phenyl)-N-[1-(3,5-difluoro-4-methanesulfonylamino-phenyl)-ethyl]-acrylamide] | 0.1 µM
CCCc1cc(F)ccc1/C=C/C(=O)N[C@H](C)c1cc(F)c(NS(C)(=O)=O)c(F)c1 [Example 53, (R)—N-[1-(3,5-Difluoro-4-methanesulfonylamino-phenyl)-ethyl]-3-(4-fluoro-2-propyl-phenyl)-acrylamide] | 0.17 µM

SMILES | IC50
CCOc1cc(C(F)(F)F)ccc1/C=C/C(=O)N[C@H](C)c1cc(F)c(NS(C)(=O)=O)c(F)c1 [Example 7, (R)—N-[1-(3,5-Difluoro-4-methanesulfonylamino-phenyl)-ethyl]-3-(2-ethoxy-4-trifluoromethyl-phenyl)-acrylamide] | 0.11 µM
CCCCOc1cc(F)ccc1/C=C/C(=O)N[C@H](C)c1cc(F)c(NS(C)(=O)=O)c(F)c1 [Example 33, (R)-3-(2-Butoxy-4-fluoro-phenyl)-N-[1-(3,5-difluoro-4-methanesulfonylamino-phenyl)-ethyl]-acrylamide] | 0.15 µM
CCc1cc(C(F)(F)F)cc(CC)c1/C=C/C(=O)N[C@H](C)c1cc(F)c(NS(C)(=O)=O)c(F)c1 [Example 17] | 0.14 µM
CCOc1cc(C(F)(F)F)ccc1/C=C/C(=O)N[C@H](CC)c1cc(F)c(NS(C)(=O)=O)c(F)c1 (stereo in doubt) [Example 37, N-[1-(3,5-Difluoro-4-methanesulfonylamino-phenyl)-propyl]-3-(2-ethoxy-4-trifluoromethyl-phenyl)-acrylamide] | 1.7 µM
CCCNc1cc(F)ccc1/C=C/C(=O)NCc1cc(F)c(NS(C)(=O)=O)c(F)c1 [Example 30] | 0.41 µM
C#Cc1cc(CNC(=O)/C=C/c2ccc(C(F)(F)F)cc2CCC)cc(F)c1NS(C)(=O)=O [Example 35, N-(3-Ethynyl-5-fluoro-4-methanesulfonylamino-benzyl)-3-(2-propyl-4-trifluoromethyl-phenyl)-acrylamide] | 0.092 µM
CCC(C)Oc1cc(C(F)(F)F)ccc1/C=C/C(=O)N[C@H](C)c1cc(F)c(NS(C)(=O)=O)c(F)c1 (stereo partly drawn) [Example 39, (R)-3-(2-sec-Butoxy-4-trifluoromethyl-phenyl)-N-[1-(3,5-difluoro-4-methanesulfonylamino-phenyl)-ethyl]-acrylamide] | 0.022 µM
CCCOc1cc(F)ccc1/C=C/C(=O)N[C@H](C)c1cc(F)c(NS(C)(=O)=O)c(F)c1 [Example 27, (R)—N-[1-(3,5-Difluoro-4-methanesulfonylamino-phenyl)-ethyl]-3-(4-fluoro-2-propoxy-phenyl)-acrylamide] | 0.17 µM
CCCc1cc(C(F)(F)F)ccc1/C=C(\C)C(=O)N[C@H](C)c1ccc(NS(C)(=O)=O)c(F)c1 [Example 49, (R)—N-[1-(3-Fluoro-4-methanesulfonylamino-phenyl)-ethyl]-2-methyl-3-(2-propyl-4-trifluoromethyl-phenyl)-acrylamide] | 1.4 µM
CCCOc1cc(C(F)(F)F)ccc1/C=C/C(=O)NCc1cc(F)c(NS(C)(=O)=O)c(F)c1 [Example 4, N-(3,5-Difluoro-4-methanesulfonylamino-benzyl)-3-(2-propoxy-4-trifluoromethyl-phenyl)-acrylamide] | 0.38 µM
CCCc1cc(C(F)(F)F)ccc1/C=C/C(=O)N[C@H](CC)c1cc(F)c(NS(C)(=O)=O)c(F)c1 [Example 25, (R)—N-[1-(3,5-Difluoro-4-methanesulfonylamino-phenyl)-propyl]-3-(2-propyl-4-trifluoromethyl-phenyl)-acrylamide] | 0.17 µM
CCCCNc1cc(C(F)(F)F)ccc1/C=C/C(=O)N[C@H](C)c1cc(F)c(NS(C)(=O)=O)c(F)c1 [Example 3, (R)-3-(2-Butylamino-4-trifluoromethyl-phenyl)-N-[1-(3,5-difluoro-4-methanesulfonylamino-phenyl)-ethyl]-acrylamide] | 0.12 µM
CCCc1cc(C(F)(F)F)ccc1/C=C/C(=O)NCc1cc(C)c(NS(C)(=O)=O)c(F)c1 [Example 23, N-(3-Fluoro-4-methanesulfonylamino-5-methyl-benzyl)-3-(2-propyl-4-trifluoromethyl-phenyl)-acrylamide] | 0.27 µM
C[C@@H](NC(=O)/C=C/c1ccc(C(F)(F)F)cc1N1CCCCC1)c1cc(F)c(NS(C)(=O)=O)c(F)c1 [Example 52] | 0.34 µM
CCCNc1cc(C(F)(F)F)ccc1CCC(=O)N[C@H](C)c1cc(F)c(NS(C)(=O)=O)c(F)c1 [Example 55, (R)—N-[1-(3,5-difluoro-4-methanesulfonylamino-phenyl)-ethyl]-3-(2-propylamino-4-trifluoromethyl-phenyl)-propionamide] | 0.19 µM
